Reference: the supplement of paper PMC13207355

How the values were obtained:
Conditions in all cases: exposure time: 72 h
E13 [1] = patient-derived glioblastoma stem cells of classical subtype; assay: surviving fraction (nuclei count normalised to DMSO); higher = more cells surviving (less toxic)
E21 [2] = patient-derived glioblastoma stem cells of mesenchymal subtype; assay: as above
E28 [3] = patient-derived glioblastoma stem cells of classical subtype; assay: as above
E31 [4] = patient-derived glioblastoma stem cells of proneural subtype; assay: as above
E34 [5] = patient-derived glioblastoma stem cells of proneural subtype; assay: as above
E57 [6] = patient-derived glioblastoma stem cells of mesenchymal subtype; assay: as above
FT3469 [7] = normal neural stem cell line; assay: as above
E13 [8] = assay: phenotypic distance (Euclidean, principal components) from DMSO controls (arbitrary units); higher = stronger morphological change
E21 [9] = assay: as above
E28 [10] = assay: as above
E31 [11] = assay: as above
E34 [12] = assay: as above
E57 [13] = assay: as above
FT3469 [14] = assay: as above
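For phenotypic distance (Euclidean, principal components) from DMSO controls in this document: cell Painting imaging in 384-well plates, CellProfiler features reduced to at least 20 principal components, Euclidean distance versus same-plate DMSO vehicle wells (0.1% v/v), median over six images per well.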
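For surviving fraction (nuclei count normalised to DMSO) in this document: nuclei counted by high-content imaging of Hoechst-stained cells in laminin-coated 384-well plates, relative to 0.1% DMSO vehicle wells, with staurosporine as cell-death control.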

NCCNc1ccc(NCCN)c2c1C(=O)c1ccncc1C2=O [Pixantrone dimaleate]
Conditions | phenotypic distance | surviving fraction
E13 [1], 4.1 nM | – | 0.883
E13 [1], 12.3 nM | – | 0.94
E13 [1], 37 nM | – | 0.916
E13 [1], 111.1 nM | – | 0.798
E13 [1], 333.3 nM | – | 0.48
E13 [1], 1000 nM | – | 0.399
E13 [1], 3000 nM | – | 0.383
E13 [8], 4.1 nM | 2.19 | –
E13 [8], 12.3 nM | 0.616 | –
E13 [8], 37 nM | 0.772 | –
E13 [8], 111.1 nM | 1.76 | –
E13 [8], 333.3 nM | 4.4 | –
E13 [8], 1000 nM | 5.24 | –
E13 [8], 3000 nM | 4.99 | –
E21 [2], 4.1 nM | – | 0.991
E21 [2], 12.3 nM | – | 0.812
E21 [2], 37 nM | – | 0.904
E21 [2], 111.1 nM | – | 0.733
E21 [2], 333.3 nM | – | 0.619
E21 [2], 1000 nM | – | 0.509
E21 [2], 3000 nM | – | 0.364
E21 [9], 4.1 nM | 0.691 | –
E21 [9], 12.3 nM | 0.873 | –
E21 [9], 37 nM | 0.996 | –
E21 [9], 111.1 nM | 2.7 | –
E21 [9], 333.3 nM | 4.95 | –
E21 [9], 1000 nM | 6 | –
E21 [9], 3000 nM | 5.53 | –
E28 [3], 4.1 nM | – | 0.677
E28 [3], 12.3 nM | – | 0.604
E28 [3], 37 nM | – | 0.524
E28 [3], 111.1 nM | – | 0.418
E28 [3], 333.3 nM | – | 0.349
E28 [3], 1000 nM | – | 0.333
E28 [3], 3000 nM | – | 0.216
E28 [10], 4.1 nM | 2.06 | –
E28 [10], 12.3 nM | 2.09 | –
E28 [10], 37 nM | 2.43 | –
E28 [10], 111.1 nM | 3.32 | –
E28 [10], 333.3 nM | 3.6 | –
E28 [10], 1000 nM | 3.19 | –
E28 [10], 3000 nM | 4.63 | –
E31 [4], 4.1 nM | – | 0.539
E31 [4], 12.3 nM | – | 0.566
E31 [4], 37 nM | – | 0.397
E31 [4], 111.1 nM | – | 0.327
E31 [4], 333.3 nM | – | 0.312
E31 [4], 1000 nM | – | 0.275
E31 [4], 3000 nM | – | 0.142
E31 [11], 4.1 nM | 2.15 | –
E31 [11], 12.3 nM | 1.85 | –
E31 [11], 37 nM | 2.43 | –
E31 [11], 111.1 nM | 3.58 | –
E31 [11], 333.3 nM | 2.86 | –
E31 [11], 1000 nM | 3.07 | –
E31 [11], 3000 nM | 4.34 | –
E34 [5], 4.1 nM | – | 0.839
E34 [5], 12.3 nM | – | 0.771
E34 [5], 37 nM | – | 0.637
E34 [5], 111.1 nM | – | 0.702
E34 [5], 333.3 nM | – | 0.686
E34 [5], 1000 nM | – | 0.588
E34 [5], 3000 nM | – | 0.492
E34 [12], 4.1 nM | 0.885 | –
E34 [12], 12.3 nM | 0.947 | –
E34 [12], 37 nM | 1.52 | –
E34 [12], 111.1 nM | 3.49 | –
E34 [12], 333.3 nM | 3.78 | –
E34 [12], 1000 nM | 3.22 | –
E34 [12], 3000 nM | 1.77 | –
E57 [6], 4.1 nM | – | 0.955
E57 [6], 12.3 nM | – | 0.897
E57 [6], 37 nM | – | 0.79
E57 [6], 111.1 nM | – | 0.555
E57 [6], 333.3 nM | – | 0.346
E57 [6], 1000 nM | – | 0.288
E57 [6], 3000 nM | – | 0.24
E57 [13], 4.1 nM | 0.987 | –
E57 [13], 12.3 nM | 0.95 | –
E57 [13], 37 nM | 1.45 | –
E57 [13], 111.1 nM | 3.37 | –
E57 [13], 333.3 nM | 6.17 | –
E57 [13], 1000 nM | 7.83 | –
E57 [13], 3000 nM | 8.45 | –
FT3469 [7], 4.1 nM | – | 0.869
FT3469 [7], 12.3 nM | – | 0.795
FT3469 [7], 37 nM | – | 0.763
FT3469 [7], 111.1 nM | – | 0.623
FT3469 [7], 333.3 nM | – | 0.666
FT3469 [7], 1000 nM | – | 0.631
FT3469 [7], 3000 nM | – | 0.565
FT3469 [14], 4.1 nM | 1.02 | –
FT3469 [14], 12.3 nM | 1.28 | –
FT3469 [14], 37 nM | 1.5 | –
FT3469 [14], 111.1 nM | 2.03 | –
FT3469 [14], 333.3 nM | 1.76 | –
FT3469 [14], 1000 nM | 1.86 | –
FT3469 [14], 3000 nM | 2.37 | –
